These results are taken from PMC8009514 (Langmuir, 2020).

Data set [1] is described as follows: Visual observation of gel-like (arrested) state. The data set is classed as physicochemical. The method, then:
Previous SAXS experiments on the peptides in water[13],[17] have shown that this concentration could be considered dilute enough not to manifest any effects of interaggregate interactions in the scattering profiles. The first observation made was that the peptide samples in MeOH and DMF were more viscous than the corresponding samples in water prepared at similar concentrations and presented highly viscous (gel-like) states after 5-12 h from solubilization (Figure 2).

For data set [2] the following is noted: cited from earlier work. The text has this:
Aggregates begin to form above a particular concentration, which can be interpreted as the monomer solubility, cs. This concentration can be measured, for example, by following the scattered light intensity as a function of dilution of a sample with an initial concentration c > cs.[13] For this purpose, solutions of the peptides at 1 wt % were gradually diluted in order to determine at which concentration the light scattering signal reached the solvent level, which is a good indication of the monomer solubility. With this method, monomer solubilities of 2 mM and 7 μM in water were determined f ...

A short description of data set [3]: Monomer solubility (cs) from scattered light intensity on dilution. The data set is classed as physicochemical. Here is the method: Dynamic light scattering (DLS) experiments were performed with an ALV/DLS/SLS-5022F goniometer system with an ALV-7004 correlator at a scattering angle of 90°. The laser source was a 22 mW He–Ne laser with a wavelength of 632.8 nm. The samples were placed in 5 mm glass tubes, kept at 25 °C, and the intensity autocorrelation functions were collected over runs of 300 s, using two avalanche photodiode detectors operating in the pseudo-cross-correlational mode. Light scattering experiments were also performed using a modulated three-dimensional light scattering instrument (LS Instruments GmbH, Switzerland), implementing a laser with a wavelength of 660 nm and two avalanche photodiodes. […] The experimental intensity correlation functions g^(2)(τ) were converted to C(τ) = (g^(2)(τ) – 1)/β = |g^(1)(τ)|^2,[35] where β is an instrumental constant, close to unity, and g^(1)(τ) is the correlation function of the electric field, which was fitted using the cumulant expansion to obtain an average diffusion coefficient.[36] Fitting was performed with an in-house MATLAB script.
Aggregates begin to form above a particular concentration, which can be interpreted as the monomer solubility, cs. This concentration can be measured, for example, by following the scattered light intensity as a function of dilution of a sample with an initial concentration c > cs.[13] For this purpose, solutions of the peptides at 1 wt % were gradually diluted in order to determine at which concentration the light scattering signal reached the solvent level, which is a good indication of the monomer solubility. […] For A8K, the monomer solubilities of about 10 μM were obtained, which means approximately 2 orders of magnitude smaller compared to that in water.

For data set [4] the following is noted: cited from earlier work. From the text: Table 1 Some Physicochemical Properties of the Three Solvents in Which the Self-Assembly of the Peptides Was Investigated | column: H2O; MeOH; DMF
The source holds these as a separate data set.

Data set [5] concerns the molecule itself. Kind of data set: light scattering intensity on dilution; peptide in N,N-dimethylformamide, 1 wt % solution gradually diluted, mean count rate at 90°; concentration at which the signal reaches the solvent level is taken as monomer solubility.
Data set [6] can be described thus: light scattering intensity on dilution; peptide in methanol, 1 wt % solution gradually diluted, mean count rate at 90°; concentration at which the signal reaches the solvent level is taken as monomer solubility. The settings on record: other: light scattering intensity on dilution.
Data set [7] in a line: light scattering intensity on dilution; peptide in N,N-dimethylformamide, 1 wt % solution gradually diluted, mean count rate at 90°; concentration at which the signal reaches the solvent level is taken as monomer solubility. The settings on record: other: light scattering intensity on dilution.

Read-outs that look alike come from different tables or passages of the source. Ends that are not written are not given here.

Take `C[C@H](N)C(=O)N[C@@H](C)C(=O)N[C@@H](C)C(=O)N[C@@H](C)C(=O)N[C@@H](C)C(=O)N[C@@H](C)C(=O)N[C@@H](C)C(=O)N[C@@H](C)C(=O)N[C@@H](C)C(=O)N[C@@H](C)C(=O)N[C@@H](CCCCN)C(=O)O` [A10K]: the “time from solubilization to highly viscous (gel-like) state” value in data set [1] (samples around 1 wt % in MeOH and DMF) lay within 5 to 12 h. The monomer solubility cs was 7 µM in data set [2] (in water, scattered light intensity on dilution of a sample with c > cs); “approximately the same solubilities” in data set [3] (in DMF, 1 wt % TFA-salt solution gradually diluted until light scattering signal reached solvent level, mean count rate at 90°, average of three runs of 100 s); “approximately the same solubilities” in data set [3] (in MeOH, 1 wt % TFA-salt solution gradually diluted until light scattering signal reached solvent level, mean count rate at 90°, average of three runs of 100 s).
Turning to `CCCCCCCCCCCCOS(=O)(=O)[O-].[Na+]` [SDS], the CMC of SDS at 25 °C in data set [4] (in DMF) was 14.6 mM; in data set [4] (in H2O), 7.8 mM; in data set [4] (in MeOH), 6.9 mM.
As to `CCCCCC` [hexane], the “solubility of hexane at 25 °C” value in data set [4] (in H2O) is 0.0124 mg/mL; in data set [4] (in MeOH), 604 mg/mL.
In the case of AAAAAAAAK [A8K], in data set [1], the “time from solubilization to highly viscous (gel-like) state” value fell in the range of 5 to 12 h. For the same molecule, the monomer solubility cs was 2000 µM in data set [2] and “about 10 μM” in data set [3].

B1: A10K amphiphilic model peptide (peptide)
peptide: AAAAAAAAAAK
notes: unprotected N-terminus; 11 residues, 857 g/mol; Designed model peptide; The printed molecular weight (857 g/mol) fits free N- and C-termini; TFA counterions are present; also called AnK (n = 10); source: synthetic peptide; bought: CPC Scientific Inc., trifluoroacetate salt, purity >96%, used without further purification
For B1, in data set [5], the binding result is given as “binds”.

B2: A8K amphiphilic model peptide (peptide)
chain: AAAAAAAAK
For B2, the “monomer solubility cs (concentration above which aggregates form)” value in data set [6] was “For A8K, the monomer solubilities of about 10 μM were obtained”; in data set [7], “For A8K, the monomer solubilities of about 10 μM were obtained”.
